The source of these data is the RepoRT retention time repository.

The data set can be described thus: HILIC, HILICON iHILIC-(P) Classic, HILIC, PEEK, 50 × 2.1 mm, 5 µm, 30 °C, 0.12 mL/min, estimated dead time 0.92 min; A: water + 20 mM ammonium carbonate + 10 mM ammonium hydroxide; B: acetonitrile; gradient (min/%B) 0/90 1/90 21/20 21.5/20 23.5/20 24.5/90 26/90 26.5/90. As to conditions: stereoisomer not certain.
With `C=C(OP(=O)(O)O)C(=O)O` [PEP], the LC retention time was 13.7 min.
`Nc1ccn(C2OC(CO)C(O)C2O)c(=O)n1` (stereo not drawn) [Cytidine]: the LC retention time was 5.88 min.
With `O=c1ccn(C2OC(COP(=O)(O)OP(=O)(O)O)C(O)C2O)c(=O)[nH]1` (stereo not drawn) [UDP], the LC retention time is 12.3 min.
In the case of `CC(=O)NC1C(OP(=O)(O)OP(=O)(O)OCC2OC(n3ccc(=O)[nH]c3=O)C(O)C2O)OC(CO)C(O)C1O` (stereo not drawn) [UDP-GlcNAc] it was 11.9 min; in that of `NC(=O)C1=CN(C2OC(COP(=O)(O)OP(=O)(O)OCC3OC(n4cnc5c(N)ncnc54)C(OP(=O)(O)O)C3O)C(O)C2O)C=CC1` (stereo not drawn) [NADPH], 16.9 min; in that of `O=C(O)C1(O)CC(O)C(O)C(O)C1` (stereo not drawn) [Quinic Acid], 6.61 min.
For the compound `NC(=O)c1ccc[n+](C2OC(COP(=O)([O-])O)C(O)C2O)c1` (stereo not drawn) [NMN], the LC retention time is 9.92 min.
Regarding `NC(=O)CC(N)C(=O)O` (stereo not drawn) [Asparagine], the LC retention time is 10.7 min.
On to `Nc1nc2c(ncn2C2OC(COP(=O)(O)O)C(O)C2O)c(=O)[nH]1` (stereo not drawn) [GMP], for which the LC retention time is 14.2 min.
As to `NC(CCC(=O)NC(CS)C(=O)NCC(=O)O)C(=O)O` (stereo not drawn) [GSH], the LC retention time is 8.79 min.
In the case of `Nc1ncnc2c1ncn2C1OC(COP(=O)(O)O)C(O)C1O` (stereo not drawn) [AMP] it was 8.72 min.
For the compound `O=C(O)CC(O)(CC(=O)O)C(=O)O` [Citric acid], the LC retention time is 16.6 min.
Next, `NCCCCC(N)C(=O)O` (stereo not drawn) [Lysine]: 18.8 min.
On to `O=c1ccn(C2OC(COP(=O)(O)O)C(O)C2O)c(=O)[nH]1` (stereo not drawn) [UMP], for which the LC retention time is 9.35 min.
Next, `Nc1ncnc2c1ncn2C1OC(COP(=O)(O)OP(=O)(O)O)C(O)C1O` (stereo not drawn) [ADP]: 12.3 min; `O=C(O)CC(C(=O)O)C(O)C(=O)O` (stereo not drawn) [Isocitric acid]: 16.1 min.
For `Nc1ncnc2nc[nH]c12` [Adenine], the LC retention time is 3.45 min.
In the case of `Nc1ncnc2c1ncn2C1OC(COP(=O)(O)OP(=O)(O)OP(=O)(O)O)C(O)C1O` (stereo not drawn) [ATP], the LC retention time was 13.5 min.
Next, `CC(O)C(=O)O` (stereo not drawn) [Lactic Acid]: 3.24 min.
In the case of `O=C(O)C(CO)OP(=O)(O)O` (stereo not drawn) [Phosphoglyceric acid A] it was 13.6 min; in that of `O=C1OC(C(O)CO)C(O)=C1O` (stereo not drawn) [Ascorbic Acid], 9.17 min.
In the case of `CC(C)CC(N)C(=O)O` (stereo not drawn) [Leucine] it was 5.52 min; in that of `CC(C)C(N)C(=O)O` (stereo not drawn) [Valine], 6.3 min; in that of `NC(=O)c1ccc[n+](C2OC(COP(=O)(O)OP(=O)(O)OCC3OC(n4cnc5c(N)ncnc54)C(O)C3O)C(O)C2O)c1` (stereo not drawn) [NAD], 9.03 min.
For `O=C(O)C1CCCN1` (stereo not drawn) [Proline], the LC retention time is 6.54 min.
Take `O=C(CO)COP(=O)(O)O` [Triose phosphate]: the LC retention time was 10.9 min.
`O=c1ccn(C2OC(COP(=O)(O)OP(=O)(O)OP(=O)(O)O)C(O)C2O)c(=O)[nH]1` (stereo not drawn) [UTP]: the LC retention time was 14.2 min.
With `NCCCC(N)C(=O)O` (stereo not drawn) [Ornithine], the LC retention time is 18.1 min.
In the case of `NC(=O)c1ccc[n+](C2OC(COP(=O)(O)OP(=O)(O)OCC3OC(n4cnc5c(N)ncnc54)C(OP(=O)(O)O)C3O)C(O)C2O)c1` (stereo not drawn) [NADP] it was 13.4 min; in that of `Nc1ccn(C2OC(COP(=O)(O)OP(=O)(O)O)C(O)C2O)c(=O)n1` (stereo not drawn) [CDP], 13.2 min; in that of `O=C(O)CCCCC1SCC2NC(=O)NC21` (stereo not drawn) [Biotin], 3.27 min.
In the case of `Nc1nc2ncc(CNc3ccc(C(=O)NC(CCC(=O)O)C(=O)O)cc3)nc2c(=O)[nH]1` (stereo not drawn) [Folic Acid] it was 14.3 min; in that of `NC(=O)CCC(N)C(=O)O` (stereo not drawn) [Glutamine], 8.38 min; in that of `CC(=O)NC(CC(=O)O)C(=O)O` (stereo not drawn) [N-Acetylaspartic acid], 9.45 min.
As for `NC(CO)C(=O)O` (stereo not drawn) [Serine], the LC retention time is 8.67 min.
Next, `Nc1nc2c(ncn2C2OC(COP(=O)(O)OP(=O)(O)O)C(O)C2O)c(=O)[nH]1` (stereo not drawn) [GDP]: 14.8 min; `O=C(O)CC(=O)O` [Malonic Acid]: 9.18 min.
Consider `CSCCC(N)C(=O)O` (stereo not drawn) [Methionine], for which the LC retention time was 5.98 min.
In the case of `O=C(O)CC(O)C(=O)O` (stereo not drawn) [Malic Acid] it was 12.9 min; in that of `O=C(O)CCC(=O)O` [Succinic Acid], 11.6 min; in that of `Nc1ccn(C2OC(COP(=O)(O)O)C(O)C2O)c(=O)n1` (stereo not drawn) [CMP], 11.1 min.
Next, `Nc1nc2c(ncn2C2OC(CO)C(O)C2O)c(=O)[nH]1` (stereo not drawn) [Guanosine]: 6.51 min; `Cc1ncc(C[n+]2csc(CCO)c2C)c(N)n1` [Thiamine]: 12.8 min; `Nc1nc2c(ncn2C2OC(COP(=O)(O)OP(=O)(O)OP(=O)(O)O)C(O)C2O)c(=O)[nH]1` (stereo not drawn) [GTP]: 17 min.
Next, `NC(Cc1c[nH]c2ccccc12)C(=O)O` (stereo not drawn) [Tryptophan]: 6.14 min; `CC(O)C(N)C(=O)O` (stereo not drawn) [Threonine]: 8.21 min.
In the case of `O=P(O)(O)OCC(O)CO` (stereo not drawn) [Glycerol-3-phosphate], the LC retention time was 10.9 min.
For `CCC(C)C(N)C(=O)O` (stereo not drawn) [Isoleucine], the LC retention time was 5.8 min.
`NC(CSSCC(N)C(=O)O)C(=O)O` (stereo not drawn) [Cystine]: the LC retention time is 11.6 min.
Regarding `CC(=O)SCCNC(=O)CCNC(=O)C(O)C(C)(C)COP(=O)(O)OP(=O)(O)OCC1OC(n2cnc3c(N)ncnc32)C(O)C1OP(=O)(O)O` (stereo not drawn) [Acetyl-CoA], the LC retention time is 8.53 min.
As to `NC(Cc1ccccc1)C(=O)O` (stereo not drawn) [Phenylalanine], the LC retention time is 5.17 min.
In the case of `NC(Cc1ccc(O)cc1)C(=O)O` (stereo not drawn) [Tyrosine] it was 6.96 min; in that of `O=C(O)c1cccnc1` [Nicotinic acid], 2.38 min; in that of `O=P(O)(O)OCC1OC(O)(COP(=O)(O)O)C(O)C1O` (stereo not drawn) [Fructose-1,6-bisphosphate], 16 min.
For `NC(=O)C1=CN(C2OC(COP(=O)(O)OP(=O)(O)OCC3OC(n4cnc5c(N)ncnc54)C(O)C3O)C(O)C2O)C=CC1` (stereo not drawn) [NADH], the LC retention time was 9.31 min.
In the case of `Nc1ncnc2c1ncn2C1OC(CO)C(O)C1O` (stereo not drawn) [Adenosine], the LC retention time was 3.59 min.
Consider `NC(CCC(=O)NC(CSSCC(NC(=O)CCC(N)C(=O)O)C(=O)NCC(=O)O)C(=O)NCC(=O)O)C(=O)O` (stereo not drawn) [GSSG], for which the LC retention time was 15.4 min.
In the case of `NC(CCC(=O)O)C(=O)O` (stereo not drawn) [Glutamic acid] it was 9.84 min.
